Assay: Sensory evaluation of yogurt containing the agent
Settings: ten panels
Procedure: Sensory evaluation of each drink was carried out by ten panels. […] The piercing aroma characteristic to aldehydes is a characteristic aroma common to every aldehyde and refers to an irritant off-smell giving an image of deteriorated oils and fats, soap, metals, Houttuynia cordata, etc. The judgment of smell was performed by comparing the effects at different concentrations of the acid taste and/or acid smell-reducing agent, and a concentration giving the highest acid taste/acid smell quality was selected.
A yogurt base material as a control was prepared by mixing 100 parts by mass of commercially available plain yogurt (milk non-fat solids: 9.5%, milk fat component: 3.0%) with 0.1 parts by mass of acetic acid (glacial acetic acid: food additive, manufactured by Junsei Chemical Co., Ltd.) with stirring. To the resulting mixture was added (Z,Z)-4,7-tridecadienal as the acid taste and/or acid smell-reducing agent of the present invention in concentrations shown in the following Table 9 to give yogurt containing the agent, followed by sensory evaluation as in Example 1.

CCCCC/C=C\C/C=C\CCC=O [(Z,Z)-4,7-tridecadienal]
8: A: number of panels, acid taste/acid smell extreme and cause irritation (0.02 ppt) | N: number of panels, irritation of acid reduced to give a mild acid taste (5 ppt) | X: number of panels, acid taste reduced but piercing odor characteristic to aldehydes unpleasant (50 ppb)
0: B: number of panels, acid taste/acid smell slightly strong and slightly cause irritation (0.005 ppt) | C: number of panels, acid taste/acid smell slightly unpleasant (0.005 ppt) | Flavor judgment: number of panels who judged acid taste/acid smell quality the highest (0.005 ppt) | N: number of panels, irritation of acid reduced to give a mild acid taste (0.005 ppt) | X: number of panels, acid taste reduced but piercing odor characteristic to aldehydes unpleasant (0.005 ppt) | C: number of panels, acid taste/acid smell slightly unpleasant (0.02 ppt) | Flavor judgment: number of panels who judged acid taste/acid smell quality the highest (0.02 ppt) | N: number of panels, irritation of acid reduced to give a mild acid taste (0.02 ppt) | X: number of panels, acid taste reduced but piercing odor characteristic to aldehydes unpleasant (0.02 ppt) | Flavor judgment: number of panels who judged acid taste/acid smell quality the highest (0.1 ppt) | N: number of panels, irritation of acid reduced to give a mild acid taste (0.1 ppt) | X: number of panels, acid taste reduced but piercing odor characteristic to aldehydes unpleasant (0.1 ppt) | Flavor judgment: number of panels who judged acid taste/acid smell quality the highest (0.2 ppt) | N: number of panels, irritation of acid reduced to give a mild acid taste (0.2 ppt) | X: number of panels, acid taste reduced but piercing odor characteristic to aldehydes unpleasant (0.2 ppt) | X: number of panels, acid taste reduced but piercing odor characteristic to aldehydes unpleasant (0.5 ppt) | A: number of panels, acid taste/acid smell extreme and cause irritation (1 ppb) | B: number of panels, acid taste/acid smell slightly strong and slightly cause irritation (1 ppb) | Flavor judgment: number of panels who judged acid taste/acid smell quality the highest (1 ppb) | A: number of panels, acid taste/acid smell extreme and cause irritation (1 ppt) | X: number of panels, acid taste reduced but piercing odor characteristic to aldehydes unpleasant (1 ppt) | A: number of panels, acid taste/acid smell extreme and cause irritation (5 ppt) | B: number of panels, acid taste/acid smell slightly strong and slightly cause irritation (5 ppt) | X: number of panels, acid taste reduced but piercing odor characteristic to aldehydes unpleasant (5 ppt) | A: number of panels, acid taste/acid smell extreme and cause irritation (10 ppb) | B: number of panels, acid taste/acid smell slightly strong and slightly cause irritation (10 ppb) | Flavor judgment: number of panels who judged acid taste/acid smell quality the highest (10 ppb) | A: number of panels, acid taste/acid smell extreme and cause irritation (20 ppt) | B: number of panels, acid taste/acid smell slightly strong and slightly cause irritation (20 ppt) | X: number of panels, acid taste reduced but piercing odor characteristic to aldehydes unpleasant (20 ppt) | A: number of panels, acid taste/acid smell extreme and cause irritation (50 ppb) | B: number of panels, acid taste/acid smell slightly strong and slightly cause irritation (50 ppb) | Flavor judgment: number of panels who judged acid taste/acid smell quality the highest (50 ppb) | A: number of panels, acid taste/acid smell extreme and cause irritation (100 ppt) | Flavor judgment: number of panels who judged acid taste/acid smell quality the highest (100 ppt) | A: number of panels, acid taste/acid smell extreme and cause irritation (500 ppt) | B: number of panels, acid taste/acid smell slightly strong and slightly cause irritation (500 ppt) | Flavor judgment: number of panels who judged acid taste/acid smell quality the highest (500 ppt)
2: B: number of panels, acid taste/acid smell slightly strong and slightly cause irritation (0.02 ppt) | C: number of panels, acid taste/acid smell slightly unpleasant (0.1 ppt) | C: number of panels, acid taste/acid smell slightly unpleasant (0.5 ppt) | Flavor judgment: number of panels who judged acid taste/acid smell quality the highest (1 ppt) | C: number of panels, acid taste/acid smell slightly unpleasant (5 ppt) | C: number of panels, acid taste/acid smell slightly unpleasant (10 ppb) | N: number of panels, irritation of acid reduced to give a mild acid taste (10 ppb) | X: number of panels, acid taste reduced but piercing odor characteristic to aldehydes unpleasant (100 ppt)
3: B: number of panels, acid taste/acid smell slightly strong and slightly cause irritation (0.1 ppt) | B: number of panels, acid taste/acid smell slightly strong and slightly cause irritation (0.2 ppt) | C: number of panels, acid taste/acid smell slightly unpleasant (0.2 ppt) | C: number of panels, acid taste/acid smell slightly unpleasant (1 ppb) | N: number of panels, irritation of acid reduced to give a mild acid taste (1 ppb) | C: number of panels, acid taste/acid smell slightly unpleasant (1 ppt) | Flavor judgment: number of panels who judged acid taste/acid smell quality the highest (20 ppt) | C: number of panels, acid taste/acid smell slightly unpleasant (100 ppt) | C: number of panels, acid taste/acid smell slightly unpleasant (500 ppt) | X: number of panels, acid taste reduced but piercing odor characteristic to aldehydes unpleasant (500 ppt)
4: A: number of panels, acid taste/acid smell extreme and cause irritation (0.2 ppt) | X: number of panels, acid taste reduced but piercing odor characteristic to aldehydes unpleasant (1 ppb) | Flavor judgment: number of panels who judged acid taste/acid smell quality the highest (5 ppt) | C: number of panels, acid taste/acid smell slightly unpleasant (20 ppt) | N: number of panels, irritation of acid reduced to give a mild acid taste (100 ppt) | N: number of panels, irritation of acid reduced to give a mild acid taste (500 ppt)
10: A: number of panels, acid taste/acid smell extreme and cause irritation (0.005 ppt)
1: A: number of panels, acid taste/acid smell extreme and cause irritation (0.5 ppt) | B: number of panels, acid taste/acid smell slightly strong and slightly cause irritation (0.5 ppt) | Flavor judgment: number of panels who judged acid taste/acid smell quality the highest (0.5 ppt) | B: number of panels, acid taste/acid smell slightly strong and slightly cause irritation (1 ppt) | C: number of panels, acid taste/acid smell slightly unpleasant (50 ppb) | N: number of panels, irritation of acid reduced to give a mild acid taste (50 ppb) | B: number of panels, acid taste/acid smell slightly strong and slightly cause irritation (100 ppt)
6: N: number of panels, irritation of acid reduced to give a mild acid taste (0.5 ppt) | N: number of panels, irritation of acid reduced to give a mild acid taste (1 ppt) | X: number of panels, acid taste reduced but piercing odor characteristic to aldehydes unpleasant (10 ppb) | N: number of panels, irritation of acid reduced to give a mild acid taste (20 ppt)
5: A: number of panels, acid taste/acid smell extreme and cause irritation (0.1 ppt)
